Source: PubChem BioAssay AID248 (DTP/NCI, 2004)
Where “and” joins values, the source holds several entries; their conditions need not be identical. Identical values can stand only once. Inconclusive results and toxic doses are left out. Rule as the data show it: active = T/C of 150% or more; inactive = T/C below 125%.

System: L1210 leukemia ip in BDF1 mice, survival T/C
Experiment: NCI In Vivo Anticancer Drug Screen. Data for tumor model L1210 Leukemia (intraperitoneal) in B6D2F1 (BDF1) mice
Settings: endpoint: mean survival time, higher = longer survival
Outline: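 Ratio derived from survival: compound-dosed mice over vehicle-dosed mice, all bearing a transplantable tumor.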

[1] = dose: 100.0 mg/kg/injection, schedule: Q01DX009 (ip), vehicle: saline
[2] = dose: 100.0 mg/kg/injection, schedule: Q01DX001 (ip), vehicle: saline
[3] = dose: 200.0 mg/kg/injection, schedule: Q01DX009 (ip), vehicle: saline
[4] = dose: 400.0 mg/kg/injection, schedule: Q01DX009 (ip), vehicle: saline
[5] = dose: 100.0 mg/kg/injection, schedule: Q01DX009 (ip), vehicle: Klucel (hydroxypropylcellulose) (HPC)
[6] = dose: 100.0 mg/kg/injection, schedule: Q04DX003 (ip), vehicle: saline
[7] = dose: 200.0 mg/kg/injection, schedule: Q01DX009 (ip), vehicle: Klucel (hydroxypropylcellulose) (HPC)
[8] = dose: 200.0 mg/kg/injection, schedule: Q04DX003 (ip), vehicle: saline
[9] = dose: 100.0 mg/kg/injection, schedule: Q04DX003 (ip), vehicle: saline with Tween-80
[10] = dose: 200.0 mg/kg/injection, schedule: Q04DX003 (ip), vehicle: saline with Tween-80
[11] = dose: 400.0 mg/kg/injection, schedule: Q04DX003 (ip), vehicle: saline with Tween-80
[12] = dose: 100.0 mg/kg/injection, schedule: Q04DX003 (ip), vehicle: Klucel (hydroxypropylcellulose) (HPC)
[13] = dose: 200.0 mg/kg/injection, schedule: Q04DX003 (ip), vehicle: Klucel (hydroxypropylcellulose) (HPC)
[14] = dose: 400.0 mg/kg/injection, schedule: Q04DX003 (ip), vehicle: Klucel (hydroxypropylcellulose) (HPC)
[15] = dose: 100.0 mg/kg/injection, schedule: Q04DX002 (ip), vehicle: Klucel (hydroxypropylcellulose) (HPC)
[16] = dose: 200.0 mg/kg/injection, schedule: Q04DX002 (ip), vehicle: Klucel (hydroxypropylcellulose) (HPC)
[17] = dose: 400.0 mg/kg/injection, schedule: Q04DX002 (ip), vehicle: Klucel (hydroxypropylcellulose) (HPC)

Measured: T/C

CC[As](=O)(O)CC(C)C
inactive: [1] 96 % of control

CCCOCNC(=O)c1cccnc1
inactive: [2] 103 % of control | [1] 97 % of control | dose: 200.0 mg/kg/injection, schedule: Q01DX001 (ip), vehicle: saline 95 % of control | [3] 94 % of control | dose: 400.0 mg/kg/injection, schedule: Q01DX001 (ip), vehicle: saline 105 % of control | [4] 103 % of control

CC(C)(CO)NCc1ccc(Cl)c(Cl)c1
inactive: [5] 98 % of control | [6] 106 % of control | [7] 102 % of control | [8] 97 % of control | dose: 400.0 mg/kg/injection, schedule: Q04DX003 (ip), vehicle: saline 97 % of control

CCOc1ccc(N)c(S)c1
inactive: dose: 13.3 mg/kg/injection, schedule: Q01DX Z (ip), vehicle: methylcellulose (MC) 105 % of control | dose: 20.0 mg/kg/injection, schedule: Q01DX Z (ip), vehicle: methylcellulose (MC) 97 % of control | dose: 30.0 mg/kg/injection, schedule: Q01DX Z (ip), vehicle: methylcellulose (MC) 95 % of control

C=CCNC(=O)Nc1cccc(O)c1
inactive: [9] 100 % of control | [10] 96 % of control | [11] 93 % of control

COc1ccc(C(=O)/C=C/c2ccc(OC)c(Br)c2)cc1
inactive: [12] 95 % of control | [13] 95 % of control | [14] 94 % of control

CC(C)CCCC(C)C1CCC2C3CC=C4CC(OC(=O)Nc5ccc(S(=O)(=O)NC6CCCCC6)cc5)CCC4(C)C3CCC12C (centres undefined)
inactive: dose: 100.0 mg/kg/injection, schedule: Q01DX001 (sc), vehicle: steriod suspending solution 110 % of control | dose: 200.0 mg/kg/injection, schedule: Q01DX001 (sc), vehicle: steriod suspending solution 108 % of control | dose: 400.0 mg/kg/injection, schedule: Q01DX001 (sc), vehicle: steriod suspending solution 105 % of control

Cc1ccc(N(C)CC#CCOc2ccc(Br)cc2)cc1
inactive: [15] 105 % of control | [16] 99 % of control | [17] 99 % of control

Nc1nc(N)c(CCCCc2ccc([N+](=O)[O-])cc2)c(N)n1
inactive: [5] 100 % of control | [7] 102 % of control | dose: 400.0 mg/kg/injection, schedule: Q01DX009 (ip), vehicle: Klucel (hydroxypropylcellulose) (HPC) 94 % of control

CCN(CC)c1ccc(S(=O)(=O)NC(=O)OC)cc1
inactive: [15] 98 % of control | [16] 112 % of control | [17] 112 % of control

COc1cc2c(cc1OCc1ccccc1)C=CN(C(=O)c1ccccc1)C2C#N (centres undefined)
inactive: dose: 25.0 mg/kg/injection, schedule: Q01DX009 (ip), vehicle: saline 100 % of control | dose: 50.0 mg/kg/injection, schedule: Q01DX009 (ip), vehicle: saline 94 % of control | [1] 94 % of control | [3] 93 % of control | [4] 98 % of control

Cc1ccc2oc(=O)cc(C)c2c1
inactive: dose: 100.0 mg/kg/injection, schedule: Q01DX001 (ip), vehicle: carboxymethylcellulose (CMC) 91 % of control | dose: 200.0 mg/kg/injection, schedule: Q01DX001 (ip), vehicle: carboxymethylcellulose (CMC) 96 % of control | dose: 400.0 mg/kg/injection, schedule: Q01DX001 (ip), vehicle: carboxymethylcellulose (CMC) 93 % of control

CC(C)CCCC(C)C1CCC2C3CC(=O)NC45CC4CCC5(C)C3CCC12C (centres undefined)
inactive: [9] 116 % of control | [10] 97 % of control | [11] 92 % of control

CCC(C)C(C)NC(C)=O (centres undefined)
inactive: [6] 101 % of control | [8] 113 % of control

Cc1cc(C(=O)c2ccccn2)c2cccc(C(F)(F)F)c2n1
inactive: dose: 50.0 mg/kg/injection, schedule: Q01DX009 (ip), vehicle: saline with Tween-80 94 % of control | dose: 100.0 mg/kg/injection, schedule: Q01DX009 (ip), vehicle: saline with Tween-80 102 % of control | [9] 92 % of control | dose: 200.0 mg/kg/injection, schedule: Q01DX009 (ip), vehicle: saline with Tween-80 100 % of control | [10] 88 % of control

Nc1ncnc2c1ncn2C1OC(COC(=O)C2C3CC4CC(C3)CC2C4)C(O)C1O (centres undefined)
inactive: [2] 104 % of control

CCCCCCCCCCCCCCCCOc1ccc(S(=O)(=O)c2ccccc2)cc1[N+](=O)[O-]
inactive: [12] 91 % of control | [13] 94 % of control | dose: 400.0 mg/kg/injection, schedule: Q01DX009 (ip), vehicle: saline sonified 96 % of control | [14] 96 % of control

COc1ccc(-c2cc3c(OC)ccc(OC)c3[nH]2)cc1OC
inactive: dose: 25.0 mg/kg/injection, schedule: Q04DX002 (ip), vehicle: Klucel (hydroxypropylcellulose) (HPC) 96 % of control | dose: 50.0 mg/kg/injection, schedule: Q04DX002 (ip), vehicle: Klucel (hydroxypropylcellulose) (HPC) 96 % of control and 99 % of control | [15] 91 % of control | [16] 93 % of control

CN(C)NP(=O)(Nc1ccccc1)Nc1ccccc1
inactive: dose: 100.0 mg/kg/injection, schedule: Q01DX009 (ip), vehicle: carboxymethylcellulose (CMC) 103 % of control | dose: 200.0 mg/kg/injection, schedule: Q01DX009 (ip), vehicle: carboxymethylcellulose (CMC) 93 % of control | dose: 400.0 mg/kg/injection, schedule: Q01DX009 (ip), vehicle: carboxymethylcellulose (CMC) 98 % of control

CC(=O)OCC(=O)[C@@]12OC(C)(C)O[C@@H]1C[C@H]1[C@@H]3CC(C=O)=C4C=C(OCCCl)CC[C@]4(C)[C@@]3(F)[C@@H](O)C[C@@]12C
inactive: [5] 95 % of control
